Results reported in patent publication US7943382B2, “Method for inspecting fat-soluble vitamin and/or fat-soluble food factor by saliva analysis” (Mitsubishi Chemical Medience Corporation, priority 2004, dated 2011).

Experiments:
[1] = CoQ10 level in parotid saliva of non-CoQ10 supplement-ingesting volunteers; format: in vivo, human; conditions: 55 non-CoQ10 supplement-ingesting volunteers; 2SD 13.5 ng/ml
Text: Therefore, a standard that can assess an individually suitable intake is required. It can be easily understood from FIG. 7 that the mean level and SD (standard deviation) of CoQ10 in parotid saliva of non-CoQ10 supplement-ingesting volunteers is useful as an example of the standard. A case that a volunteer, who is taking the CoQ10 supplement at an adequate time after meals, ingests it to increase the blood level up to a limit of the CoQ10 level of a non-ingesting volunteer, will be taken as an example for explanation. If a CoQ10 level in parotid saliva is far over the mean value +2SD, the intake is reduced, and if it is between the mean value −2SD and the mean value +2SD, the intake is increased, and the CoQ10 level is repeated inspected in saliva collected again at later dates, allowing the object to be achieved. In addition, the mean level and 2SD in FIG. 7 are obtained from the CoQ10 levels in parotid saliva of the 55 non-CoQ10 supplement-ingesting volunteers, the mean level is 17.0 ng/ml and the 2SD is 13.5 ng/ml.

[2] = Adsorption of CoQ10 in saliva to absorbent materials (no extraction); format: physicochemical
Procedure: In the method of preparing the specimens in example 2, the absorbent materials for saliva were weighed. 50 mg of an absorbent was soaked in 600 μl of saliva, 20 μl of saliva was fractionated to analyze the CoQ10 concentration in saliva transuaded from the absorbent, to which 180 μl of isopropanol was added, mixed, and centrifuged at 4° C. by 1000 G for 5 minutes to remove proteins, and 20 μl of the supernatant was subjected to HPLC. The results of analysis for CoQ10 are shown in Table 1 as “CoQ10 concentrations in saliva which was obtained by steps that 50 mg of the absorbent was soaked in 600 μl of saliva and the saliva was preserved in the interspace of the absorbent”. It took about 3 minutes to secrete 1 ml of parotid saliva for the volunteers who spent little time, and 10 minutes or longer for the volunteers who spent lots of time, therefore it is practically difficult to collect without the absorbent. In this case, the fat-soluble food factors and the fat-soluble vitamins are adsorbed by any absorbent materials for saliva such as polyester, cotton and acetylcellulose. Although it is lowly absorptive, polyurethane fills water in saliva as bound water, so that condensation is caused, resulting in apparently high level (Refer to Table 1). Consequently, the adsorbed component should be extracted. […] That means, a certain amount of saliva should be absorbed to a certain amount of absorbent in the oral cavity.

[3] = Extraction of CoQ10 from saliva and absorbent depending on deproteinization solvent; format: physicochemical
Procedure: In the method of preparing the specimens in examples 1 and 2, the solvents were weighed using ethanol (90, 75, 50%), isopropanol (90, 75, 50%) or methanol (90, 75, 50%). Saliva of 600 μl, and 600, 1800 and 5400 μl of the solvent respectively were added to 50 mg of an absorbent to have a final concentrations of 50, 75 and 90% (V/V) respectively. The resultant solution was mixed, stirred, and centrifuged at 4° C. by 1000 G to get a supernatant, 20 μl of which was used to analyze CoQ10 by HPLC. As a result, the values shown in the following Table 2 “The CoQ10 concentrations in the supernatant obtained by deproteinizing saliva in three solvents and at three concentration levels (ng/ml)” were obtained. Ethanol, which was not affected by adsorption to proteins even at a concentration of 75% and could efficiently extract, was confirmed to be most suitable.

[4] = Extraction of CoQ10 from absorbent materials with 75% (V/V) ethanol; format: physicochemical
Procedure: In the method of preparing the specimens in example 2, the absorbent materials for saliva and the collection rate by extraction with 75% (V/V) ethanol were weighed. An absorbent of 50 mg was soaked in 600 μl of saliva, to which […] of ethanol was added, mixed, and centrifuged at 4° C. by 1000 G or 5 minutes to remove proteins, and 20 μl of the supernatant was subjected to HPLC. The results of analysis for CoQ10 are shown in Table 3 as “CoQ10 concentrations in saliva which was obtained by steps that 50 mg of the absorbent was soaked in 600 μl of saliva and the saliva was extracted with 1800 μl of ethanol (final concentration: 75%)”. […] Thus, although the fat-soluble components in saliva are adsorbed to the absorbent, the content in a certain amount of saliva can be determined by analyzing the summation of the fat-soluble food factors and the fat-soluble vitamins contained in saliva preserved in the absorbent and interspace.

[5] = 50 mg Acetylcellulose soaked in 600 μl of saliva
[6] = 50 mg Cotton soaked in 600 μl of saliva
[7] = 50 mg Polyester soaked in 600 μl of saliva
[8] = 50 mg Polyurethane soaked in 600 μl of saliva
[9] = Acetylcellulose + ethanol (final concentration 75%)
[10] = Cotton + ethanol (final concentration 75%)
[11] = Polyester + ethanol (final concentration 75%)
[12] = Polyurethane + ethanol (final concentration 75%)

**Q.** Which results are given for `COC1=C(OC)C(=O)C(C/C=C(\C)CC/C=C(\C)CC/C=C(\C)CC/C=C(\C)CC/C=C(\C)CC/C=C(\C)CC/C=C(\C)CC/C=C(\C)CC/C=C(\C)CCC=C(C)C)=C(C)C1=O` [CoQ10, Ubidecarenone]?
**A.** mean CoQ10 level in parotid saliva [1]: 17.0 ng/mL; CoQ10 concentration in saliva preserved in the interspace of the absorbent [2, 5]: 25 ng/mL; Collection rate [2, 5]: 7.3%; CoQ10 concentration in saliva preserved in the interspace of the absorbent [2, 6]: 3.4 ng/mL; Collection rate [2, 6]: 10.2%; CoQ10 concentration in saliva preserved in the interspace of the absorbent [2, 7]: 19.6 ng/mL; Collection rate [2, 7]: 58.2%; CoQ10 concentration in saliva preserved in the interspace of the absorbent [2, 8]: 59.8 ng/mL; Collection rate [2, 8]: 178%; CoQ10 concentration in saliva ([2]; Saliva (control), no absorbent): 33.7 ng/mL; Collection rate ([2]; Saliva (control), no absorbent): 100%; Collection amount of CoQ10 by the solvents ([3]; ethanol 50 V/V %): 3 ng/mL; Collection amount of CoQ10 by the solvents ([3]; ethanol 75 V/V %): 86 ng/mL; Collection amount of CoQ10 by the solvents ([3]; ethanol 90 V/V %): 98 ng/mL; Collection amount of CoQ10 by the solvents ([3]; isopropanol 50 V/V %): 23 ng/mL; Collection amount of CoQ10 by the solvents ([3]; isopropanol 75 V/V %): 19 ng/mL; Collection amount of CoQ10 by the solvents ([3]; isopropanol 90 V/V %): 56 ng/mL; Collection amount of CoQ10 by the solvents ([3]; methanol 50 V/V %): 2 ng/mL; Collection amount of CoQ10 by the solvents ([3]; methanol 75 V/V %): 2 ng/mL; Collection amount of CoQ10 by the solvents ([3]; methanol 90 V/V %): 61 ng/mL; CoQ10 concentration in saliva after extraction [4, 9]: 31.8 ng/mL; Collection rate [4, 9]: 94.3%; CoQ10 concentration in saliva after extraction [4, 10]: 32.2 ng/mL; Collection rate [4, 10]: 95.6%; CoQ10 concentration in saliva after extraction [4, 11]: 34.2 ng/mL; Collection rate [4, 11]: 102%; CoQ10 concentration in saliva after extraction [4, 12]: 32.1 ng/mL; Collection rate [4, 12]: 95.2%; CoQ10 concentration in saliva ([4]; Saliva (control)): 33.7 ng/mL; Collection rate ([4]; Saliva (control)): 100%; collection by extraction, independent of the absorbent material ([4]; ethanol 75% (V/V)): approximately 100%
